Four cell lines from the supplement of paper PMC10307832 can be followed below.

Common to all, as to assay: relative viability (nuclei count vs DMSO), 5 days (fraction); higher = more cells survive
Compound in assay [1]: CN(c1ncccc1CNc1nc(Nc2ccc3c(c2)CC(=O)N3)ncc1C(F)(F)F)S(C)(=O)=O + CC(=O)Nc1cccc(-n2c(=O)n(C3CC3)c(=O)c3c(Nc4ccc(I)cc4F)n(C)c(=O)c(C)c32)c1 [Trametinib] (partner 0.02 µM)
The procedure, abridged: (§1)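 The day after seeding in 1536-well plates, lung cancer cell lines were treated by pin tool with a single drug, or with a fixed anchor-drug dose together with five library-drug doses (not always all listed) in √10 steps. After 5 days, a combined fix-and-stain solution (final 0.05% Triton X-100, 1% formaldehyde, 1 ug/ml Hoechst) was added. Nuclei counted on 4× images gave relative viability as treated counts over vehicle counts, reported as the median of duplicate plates.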

Compound in assay [2]: CN(c1ncccc1CNc1nc(Nc2ccc3c(c2)CC(=O)N3)ncc1C(F)(F)F)S(C)(=O)=O + COc1cccc2cc(-c3nc([C@H]4CC[C@H](C(=O)O)CC4)n4ncnc(N)c34)[nH]c12 [OSI-027] (partner 0.5 µM)
The procedure, abridged: as §1

Compound in assay [3]: CN(c1ncccc1CNc1nc(Nc2ccc3c(c2)CC(=O)N3)ncc1C(F)(F)F)S(C)(=O)=O + CS(=O)(=O)CCNCc1ccc(-c2ccc3ncnc(Nc4ccc(OCc5cccc(F)c5)c(Cl)c4)c3c2)o1 [Lapatinib] (partner 2 µM)
The essentials: as §1

Compound in assay [4]: CN(c1ncccc1CNc1nc(Nc2ccc3c(c2)CC(=O)N3)ncc1C(F)(F)F)S(C)(=O)=O + C[C@]1(O)C[C@@H](c2nc(-c3ccc4ccc(-c5ccccc5)nc4c3)c3c(N)nccn32)C1 [Linsitinib] (partner 1 µM)
The procedure, abridged: as §1

As for SK-LU-1, the relative viability in assay [1] (first compound 0.01 µM) amounted to 0.479; in assay [1] (first compound 0.03162 µM), 0.556; in assay [1] (first compound 0.1 µM), 0.489; in assay [1] (first compound 0.3162 µM), 0.449; in assay [1] (first compound 1 µM) it was 0.45; in assay [2] (first compound 0.01 µM), 0.343. The relative viability was 0.411 in assay [2] (first compound 0.03162 µM); 0.371 in assay [2] (first compound 0.1 µM); 0.351 in assay [2] (first compound 0.3162 µM); 0.284 in assay [2] (first compound 1 µM); 0.885 in assay [3] (first compound 0.01 µM); 1.13 in assay [3] (first compound 0.03162 µM). The relative viability was 0.912 in assay [3] (first compound 0.1 µM); 0.722 in assay [3] (first compound 0.3162 µM); 0.874 in assay [3] (first compound 1 µM); 0.936 in assay [4] (first compound 0.01 µM); 1.12 in assay [4] (first compound 0.03162 µM); 0.966 in assay [4] (first compound 0.1 µM). In addition, the relative viability is 1.02 in assay [4] (first compound 0.3162 µM) and 0.97 in assay [4] (first compound 1 µM).

As for SK-MES-1, the relative viability stood at 0.562 in assay [1] (first compound 0.01 µM); 0.532 in assay [1] (first compound 0.03162 µM); 0.558 in assay [1] (first compound 0.1 µM); 0.57 in assay [1] (first compound 0.3162 µM); 0.513 in assay [1] (first compound 1 µM); 0.562 in assay [2] (first compound 0.01 µM). Further, the relative viability was 0.571 in assay [2] (first compound 0.03162 µM); 0.475 in assay [2] (first compound 0.1 µM); 0.491 in assay [2] (first compound 0.3162 µM); 0.429 in assay [2] (first compound 1 µM); 0.456 in assay [3] (first compound 0.01 µM); 0.456 in assay [3] (first compound 0.03162 µM). Also, the relative viability worked out at 0.473 in assay [3] (first compound 0.1 µM); 0.422 in assay [3] (first compound 0.3162 µM); 0.474 in assay [3] (first compound 1 µM); 1.04 in assay [4] (first compound 0.01 µM); 1.06 in assay [4] (first compound 0.03162 µM); 1.08 in assay [4] (first compound 0.1 µM). Besides, the values for the relative viability in assay [4] (first compound 0.3162 µM) and in assay [4] (first compound 1 µM) were 0.925 and 1.01, respectively.

Take SW 1573: the relative viability came out at 0.568 in assay [1] (first compound 0.01 µM); 0.567 in assay [1] (first compound 0.03162 µM); 0.531 in assay [1] (first compound 0.1 µM); 0.636 in assay [1] (first compound 0.3162 µM); 0.449 in assay [1] (first compound 1 µM); 0.549 in assay [2] (first compound 0.01 µM). Besides, the relative viability in assay [2] (first compound 0.03162 µM) is 0.669; in assay [2] (first compound 0.1 µM), 0.569; in assay [2] (first compound 0.3162 µM), 0.738; in assay [2] (first compound 1 µM) it was 0.559; in assay [3] (first compound 0.01 µM) it was 1.18; in assay [3] (first compound 0.03162 µM), 1.09. The relative viability was 1.21 in assay [3] (first compound 0.1 µM); 1.27 in assay [3] (first compound 0.3162 µM); 1.08 in assay [3] (first compound 1 µM); 0.926 in assay [4] (first compound 0.01 µM); 0.635 in assay [4] (first compound 0.03162 µM); 0.754 in assay [4] (first compound 0.1 µM). The relative viability in assay [4] (first compound 0.3162 µM) was 0.863; in assay [4] (first compound 1 µM), 0.867.

In the case of UMC-11, the relative viability in assay [1] (first compound 0.01 µM) turned out to be 0.762; in assay [1] (first compound 0.03162 µM), 0.761; in assay [1] (first compound 0.1 µM), 0.794; in assay [1] (first compound 0.3162 µM), 0.72; in assay [1] (first compound 1 µM), 0.539; in assay [2] (first compound 0.01 µM) it was 0.461. For the same cell line, the relative viability in assay [2] (first compound 0.03162 µM) amounted to 0.477; in assay [2] (first compound 0.1 µM), 0.45; in assay [2] (first compound 0.3162 µM), 0.459; in assay [2] (first compound 1 µM) it was 0.421; in assay [3] (first compound 0.01 µM), 1.03; in assay [3] (first compound 0.03162 µM), 1.06. The relative viability in assay [3] (first compound 0.1 µM) turned out to be 0.866; in assay [3] (first compound 0.3162 µM), 0.995; in assay [3] (first compound 1 µM), 0.678; in assay [4] (first compound 0.01 µM) it was 0.979; in assay [4] (first compound 0.03162 µM) it was 1.02; in assay [4] (first compound 0.1 µM) it was 1.03. The relative viability in assay [4] (first compound 0.3162 µM) is 0.952; in assay [4] (first compound 1 µM) it was 0.781.
